Measurements reported in patent US20060229433A1, “Modified antiviral peptides with increased activity and cell membrane affinity” (priority 2003, published 2006).

Tested on: C8166 cells
Test: Toxicity on C8166 cells (daily cell count, trypan-blue exclusion)
Assay type: cell-based
Settings: at doses up to 10 μM
Method: Samples of 3×10^5/100 μL C8166 cells were preincubated in 96-well microtiter plates in culture medium containing various concentrations of peptide. After a 1 h treatment at 37° C., 100 μl of diluted viral solution of HIV-1 was added. The cells were exposed to the virus for 1 h at 37° C. at a multiplicity of infection of 1000 TCID50 per ml. The cells were washed three times and cultured at 3×10^5/ml of R10 with the treatment in 24-well plates incubated at 37° C. C8166 culture medium was replaced at Day-4 post-infection. The treatment was permanent before virus adsorption, during virus adsorption and after infection. Assays on C8166 cells have been performed at least twice and in duplicate. Toxicity was evaluated by daily cell count and trypan-blue exclusion assay. Infection of C8166 T-cells with HIV-1 was assessed by virus-induced cytopathic effects (syncytia formation) and by quantification of cell free p24 viral protein in the culture supernatants. Measurements of HIV-1 p24^gag concentration in the culture supernatants were achieved by ELISA (ALLIANCE® HIV-1 p24 kit, Perkin Elmer, life sciences, USA).

Compound	toxicity on cells
C[C@H](NC(=O)[C@H](CCCNC(=N)N)NC(=O)CNC(=O)[C@@H]1CCCN1C(=O)CN)C(=O)N[C@@H](Cc1ccccc1)C(=O)NCCCC[C@H](NC(=O)[C@H](Cc1ccccc1)NC(=O)[C@H](C)NC(=O)[C@H](CCCNC(=N)N)NC(=O)CNC(=O)[C@@H]1CCCN1C(=O)CN)C(=O)NCCCC[C@H](NC(=O)[C@H](CCCCNC(=O)[C@H](Cc1ccccc1)NC(=O)[C@H](C)NC(=O)[C@H](CCCNC(=N)N)NC(=O)CNC(=O)[C@@H]1CCCN1C(=O)CN)NC(=O)[C@H](Cc1ccccc1)NC(=O)[C@H](C)NC(=O)[C@H](CCCNC(=N)N)NC(=O)CNC(=O)[C@@H]1CCCN1C(=O)CN)C(=O)NCCCC[C@H](NC(=O)[C@H](CCCCNC(=O)[C@H](CCCCNC(=O)[C@H](Cc1ccccc1)NC(=O)[C@H](C)NC(=O)[C@H](CCCNC(=N)N)NC(=O)CNC(=O)[C@@H]1CCCN1C(=O)CN)NC(=O)[C@H](Cc1ccccc1)NC(=O)[C@H](C)NC(=O)[C@H](CCCNC(=N)N)NC(=O)CNC(=O)[C@@H]1CCCN1C(=O)CN)NC(=O)[C@H](CCCCNC(=O)[C@H](Cc1ccccc1)NC(=O)[C@H](C)NC(=O)[C@H](CCCNC(=N)N)NC(=O)CNC(=O)[C@@H]1CCCN1C(=O)CN)NC(=O)[C@H](Cc1ccccc1)NC(=O)[C@H](C)NC(=O)[C@H](CCCNC(=N)N)NC(=O)CNC(=O)[C@@H]1CCCN1C(=O)CN)C(=O)NCCCCC(=O)O [S5, SPC3-(δ-aminovaleric acid)]	no toxicity
C[C@H](NC(=O)[C@H](CCCNC(=N)N)NC(=O)CNC(=O)[C@@H]1CCCN1C(=O)CN)C(=O)N[C@@H](Cc1ccccc1)C(=O)NCCCC[C@H](NC(=O)[C@H](Cc1ccccc1)NC(=O)[C@H](C)NC(=O)[C@H](CCCNC(=N)N)NC(=O)CNC(=O)[C@@H]1CCCN1C(=O)CN)C(=O)NCCCC[C@H](NC(=O)[C@H](CCCCNC(=O)[C@H](Cc1ccccc1)NC(=O)[C@H](C)NC(=O)[C@H](CCCNC(=N)N)NC(=O)CNC(=O)[C@@H]1CCCN1C(=O)CN)NC(=O)[C@H](Cc1ccccc1)NC(=O)[C@H](C)NC(=O)[C@H](CCCNC(=N)N)NC(=O)CNC(=O)[C@@H]1CCCN1C(=O)CN)C(=O)NCCCC[C@H](NC(=O)[C@H](CCCCNC(=O)[C@H](CCCCNC(=O)[C@H](Cc1ccccc1)NC(=O)[C@H](C)NC(=O)[C@H](CCCNC(=N)N)NC(=O)CNC(=O)[C@@H]1CCCN1C(=O)CN)NC(=O)[C@H](Cc1ccccc1)NC(=O)[C@H](C)NC(=O)[C@H](CCCNC(=N)N)NC(=O)CNC(=O)[C@@H]1CCCN1C(=O)CN)NC(=O)[C@H](CCCCNC(=O)[C@H](Cc1ccccc1)NC(=O)[C@H](C)NC(=O)[C@H](CCCNC(=N)N)NC(=O)CNC(=O)[C@@H]1CCCN1C(=O)CN)NC(=O)[C@H](Cc1ccccc1)NC(=O)[C@H](C)NC(=O)[C@H](CCCNC(=N)N)NC(=O)CNC(=O)[C@@H]1CCCN1C(=O)CN)C(=O)NCCCC(=O)O [S6, SPC3-(γ-aminobutyric acid)]	no toxicity
